Tested on: voltage-activated Na+ and K+ currents
Assay: Whole-cell voltage-clamp, voltage-activated currents in rat DRG neurons
Format: cell-based
Conditions: 1 µM, depolarization pulse to +10 mV
Description: We also investigated the effect of RGM8-51 on native TRPM8 channels from rat DRG neurons. Whole-cell patch-clamp recordings from small size DRG neurons evidenced menthol (100 µM)-activated inward currents at a holding voltage of −80 mV (Figure 3A). As expected from results obtained in rTRPM8-expressing HEK293 cells, RGM8-51 (1 µM) inhibited menthol-activated currents.
Voltage-activated Na^+ and K^+ currents and TRPM8-mediated currents were recorded in DRG neurons isolated from 6-8 weeks old Sprague-Dawley rats, as previously described. Rats were sacrificed by cervical dislocation followed by decapitation and lumbar segments of the spinal column were removed and placed in a cold Ca^2+, Mg^2+-free Hank’s solution (Sigma-Aldrich, Madrid, Spain). The bone surrounding the spinal cord was removed and the right L4, L5 and L6 DRG were exposed and pulled out. […]
Data were sampled at 10 kHz (EPC10 amplifier with PatchMaster 2.53 software, HEKA Electronics, Lambrecht, Germany) and low-pass filtered at 3 kHz for analysis (PatchMaster 2.53 and GraphPad Prism 6.0, Graphpad Software, San Diego, CA, USA). […] Cell capacitance was measured and used to estimate the current density (J, pA/pF).

## C[C@@H]1C(=O)N(C[C@H](Cc2ccccc2)N(Cc2ccccc2)Cc2ccccc2)[C@]1(Cc1ccccc1)C(=O)OC(C)(C)C [RGM8-51, 4(S)-Benzyl-3S-methyl-4-(tert-butoxy)carbonyl-1-[(2′S-dibenzylamino-3′-phenyl)prop-1′-yl]-2-oxoazetidine]
  effect on voltage-activated Na+ and K+ currents: had no effect

Source: article PMC8910920 (International Journal of Molecular Sciences, 2022)
